For experiment [1], the system named is human EphB4 promoter. The experiment can be described thus: EphB4 promoter luciferase reporter assay in R+ cells (mouse embryo fibroblasts expressing human IGF-I receptor). The experiment is classed as cell-based. The text has this: The TAAT motif at position −1365 of the −1500/−7mut construct used in conditions 7-9 was substituted with a TGCT motif by site directed mutagenesis. In FIG. 2, Series 1: Firefly Luciferare signal (pGL3-Luc EphB4 constructs); Seies 2: Renilla Luciferase signal (mock vector); and RLU: Relative Luciferase Units. Conditions: 1-3: −7/−1508 EphB4 promoter region; 4-6: −7/−1028 EphB4 promoter region; 7-9: −7/−1508mut EphB4 promoter construct, wherein: 1. Serum Free, EphB4 promoter −7/−1508; 2. IGF-II, 10 nM, EphB4 promoter −7/−1508; 3.10% FBS, EphB4 promoter −7/−1508; 4. Serum Free, EphB4 promoter −7/−1028; 5. IGF-II, 10 nM, EphB4 promoter −7/−1028; 6.10% FBS, EphB4 promoter −7/−1028; 7. Serum Free, EphB4 promoter −7/−1508mut; 8. IGF-II, 10 nM, EphB4 promoter −7/−1508mut; and 9.10% FBS, EphB4 promoter −7/−1508mut.
In order to establish the role of IGF-II on EphB4 expression, a mouse embryo fibroblast cell line expressing the human IGF-I receptor (R^+ cells) was transiently transfected with three variants of the human EphB4 promoter previously described by Bruhl et al., supra, along with trace amounts of a renilla luciferase mock vector. […] Cell lysates were generated and then assayed for Luciferase activity using a Promega Dual luciferase assay and a Veritas Luminescence reader (Biotek).
On the technique in general: Reporter assays use an easily measured gene product as a stand-in for the process of interest.

The test system of experiment [2] is human EphB4 promoter. The experiment can be described thus: EphB4 promoter luciferase reporter assay in R-InsR-A cells (IGF-IR null embryo fibroblasts expressing human InsR-A). The format is cell-based. The note with it: IGF-II 10 nM. As to the method: In FIG. 3, Series 1: Firefly Luciferare signal (pGL3-Luc −1508/−7 EphB4 construct); Series 2: Renilla Luciferase signal (mock vector); and RLU=Relative Luciferase Units. Conditions: 1. R^+ cells (IGF-IR^+); Serum Free, EphB4 promoter −7/−1508; 2. R^+ cells (IGF-IR^+); IGF-II, 10 nM, EphB4 promoter −7/−1508; 3. R-IRA cells (InsR-A^+); Serum Free, EphB4 promoter −7/−1508; 4. R-IRA cells (InsR-A^+); IGF-II, 10 nM, EphB4 promoter −7/−1508.
In order to establish the role of IGF-II on EphB4 expression, a mouse embryo fibroblast cell line expressing the human IGF-I receptor (R^+ cells) was transiently transfected with three variants of the human EphB4 promoter previously described by Bruhl et al., supra, along with trace amounts of a renilla luciferase mock vector. 24 hrs post-trasfection, the cells were serum starved for 12 hrs and then stimulated (or not) with 10 nM IGF-II for 8 hrs. Cell lysates were generated and then assayed for Luciferase activity using a Promega Dual luciferase assay and a Veritas Luminescence reader (Biotek). […]

Results on one substance are retold here after patent US20110052667A1, “COMPOSITIONS AND METHODS FOR INHIBITING ANGIOGENESIS AND TUMORIGENESIS” (Sylgen Laboratories, Inc., priority 2007, published 2011).

Entries after “also recorded” stand apart in the source; their conditions may differ.

“IGF-II: Insulin-like growth factor-II, used at 10 nM to stimulate cells carrying EphB4 promoter reporter constructs”: the “EphB4 reporter gene activation, promoter with -1500 to -1028 region deleted (-1028 to -7 construct)” value in experiment [1] (10 nM IGF-II) is listed as “but not when the −1500 to −1028 region is deleted”. Moreover, the “EphB4 gene activation (reporter gene, full length promoter -1508 to -7)” value in experiment [1] (10 nM IGF-II for 8 hrs, Dual luciferase assay, compared with serum (10% FBS)) is on record as “able to stimulate EphB4 gene activation at levels comparable to the ones obtained with serum activation; also recorded: causes the activation of the EphB4 reporter gene”. For the same substance, the “EphB4 gene activation (reporter gene, promoter -7/-1508) through InsR-A” value in experiment [2] is “comparable to that obtained through IGF-IR activation”.
